The source of these data is paper PMC4795541, “A Rapid and Quantitative Flow Cytometry Method for the Analysis of Membrane Disruptive Antimicrobial Activity” (PLoS ONE, 2016).

Experiment [1] has as its system A. baumannii strain 2208, ATCC 19606. The note with it: ATCC 19606, 24 h. The source says: (§1) The bacterial strains; Fusobacterium nucleatum ATCC 25586, Streptococcus mutans Ingbritt, Staphylococcus aureus (MSSA) ATCC 29213; Staphylococcus aureus (MRSA) ATCC 43300; Enterococcus faecalis ATCC 29212; Enterobacter aerogenes ATCC 13048; Pseudomonas aeruginosa strain PAO1-LAC, ATCC 47085; Klebsiella pneumoniae ATCC 13883; Acinetobacter baumannii strain 2208, ATCC 19606; Escherichia coli ATCC 25922 lyophilised or glycerol stocks were obtained from the culture collection of the Oral Health Cooperative Research Centre, The Melbourne Dental School, University of Melbourne, Australia. These strains were selected for this study as they are widely used in antimicrobial studies and are considered to be important pathogens and major targets for antibiotic resistant studies. Bacteria were grown aerobically and maintained by passage at ambient temperature (E. coli, K. pneumoniae, A. baumannii and S. aureus strains) or at 37°C (P. aeruginosa, E. faecalis and E. aerogenes) on horse blood agar (10% v/v defibrinated horse blood, 4.4% w/v Oxoid Blood Agar Base No. 2). S. mutans and F. nucleatum were grown anaerobically (MK3 anaerobic workstation, Don Whitley Scientific Limited, England) and maintained by passage at 37°C on Todd Hewitt agar (3.6% w/v Oxoid Todd-Hewitt Broth, 1.5% w/v sucrose, 1.5% w/v BactoTM Agar, 0.8% w/v Oxoid Yeast Extract) or horse blood agar, respectively. For the antimicrobial peptide assays a 20 mL starter culture was produced by taking single colonies from blood or Todd Hewitt agar plates, respectively, to inoculate either: Luria Broth (LB; 1% w/v BactoTM Tryptone, 1% w/v NaCl, 0.5% w/v Oxoid Yeast Extract, pH 7.5, Thermo Scientific Pty, Ltd, Sydney, Australia) for bacteria; E. coli, K. pneumoniae, P. aeruginosa, A. baumannii, E. faecalis, E. aerogenes and S. aureus which were grown aerobically at 37°C, or Todd Hewitt broth (3.6% w/v Oxoid Todd-Hewitt Broth, 1.5% w/v sucrose, 0.8% w/v Oxoid Yeast 9 Extract) for S. mutans, or Brain Heart Infusion broth (BHI; 3.7% w/v Oxoid BHI, 0.05% w/v L-cysteine) for F. nucleatum which were both grown anaerobically at 37°C. After overnight incubation, 0.5–2.0 mL of the starter culture was used to inoculate the appropriate fresh broth (200 mL) and growth monitored at 650 nm using a spectrophotometer (model 275E; Perkin-Elmer, Sydney, Australia) with culture purity checked by microscopic examination and culture. Bacteria were harvested during late exponential growth phase and viability and bacteria/mL determined using a BacLight viability kit (Invitrogen, Sydney, Australia) and a Quanta SC-MPL flow cytometer (Beckman coulter Pty, Ltd, Sydney, Australia).
(§2) Antibacterial assays were undertaken to determinate the minimum inhibitory concentration (MIC), minimum bactericidal concentration (MBC) and minimum membrane disruptive concentration (MDC) of each of the antimicrobial peptides (AMP) and AMP analogues (S1 Table). For each bacterim a stock solution (2.5 × 10^6 cells/mL) in the respective media was made and an aliquot incubated with AMPs within 15 minutes from viable cell count and stock preparation. All AMPs were dissolved in DMSO and a 500 μM stock solution prepared by adding the respective media and serial dilutions (250–0.244 μM) of the AMP in media (100 μL/well) made just prior addition of bacteria. […] One hundred microliter aliquots of the bacterial stock solution (2.5 × 10^5 cells/well) were added to the AMP serial dilutions and incubated at 37°C for 90 min. Assay preparation and incubations were conducted in aerobic or anaerobic conditions dependent on the bacteria. Bacteria were also incubated in the absence of AMP to serve as a growth control for the assay. After the 90 minute incubation period the antimicrobial activity (MIC, MBC and MDC) was determined as follows;
(§3) For MIC the CLSI broth microdilution assay was followed as we have previously described.

Experiment [2] concerns E. coli ATCC 25922. Conditions: ATCC 25922, 24 h.
Text: as §1, §2, §3

The subject of experiment [3] is K. pneumoniae ATCC 13883. The note with it: ATCC 13883, 24 h.
Text: as §1, §2, §3

The test system of experiment [4] is S. aureus (MSSA) ATCC 29213. The note with it: ATCC 29213, 24 h.
Text: as §1, §2, §3

Experiment [5] concerns E. aerogenes ATCC 13048. Conditions: ATCC 13048, 24 h.
Text: as §1, §2, §3

In experiment [6] the test system is S. mutans Ingbritt. Conditions: Ingbritt, 24 h.
Text: as §1, §2, §3

Experiment [7] relates to P. aeruginosa strain PAO1-LAC, ATCC 47085. Conditions: PAO1, 24 h.
Text: as §1, §2, §3

Experiment [8] has as its system F. nucleatum ATCC 25586. Conditions: ATCC 25586, 24 h.
Text: as §1, §2, §3

Experiment [9] relates to S. aureus (MRSA) ATCC 43300. Conditions: ATCC 43300, 24 h.
Text: as §1, §2, §3

For experiment [10], the system named is E. faecalis ATCC 29212. Conditions: ATCC 29212, 24 h.
Text: as §1, §2, §3

Experiment [11] has as its system A. baumannii strain 2208, ATCC 19606. Conditions: ATCC 19606.
Text: as §1, §2
(§4) For determination of MBC, the CLSI protocol was followed, with the modifications being that due to the rapid action of the AMPs the assay incubation time was shortened from 16–20 hours to 90 minutes.

For experiment [12], the system named is E. coli ATCC 25922. The note with it: ATCC 25922.
Text: as §1, §2, §4

Experiment [13] deals with K. pneumoniae ATCC 13883. Conditions: ATCC 13883.
Text: as §1, §2, §4

Experiment [14] deals with S. aureus (MSSA) ATCC 29213. The note with it: ATCC 29213.
Text: as §1, §2, §4

In experiment [15] the test system is E. aerogenes ATCC 13048. Conditions: ATCC 13048.
Text: as §1, §2, §4

Experiment [16] relates to S. mutans Ingbritt. The note with it: Ingbritt.
Text: as §1, §2, §4

For experiment [17], the system named is P. aeruginosa strain PAO1-LAC, ATCC 47085. The note with it: PAO1.
Text: as §1, §2, §4

Experiment [18] concerns F. nucleatum ATCC 25586. The note with it: ATCC 25586.
Text: as §1, §2, §4

In experiment [19] the test system is S. aureus (MRSA) ATCC 43300. Conditions: ATCC 43300.
Text: as §1, §2, §4

Experiment [20] concerns E. faecalis ATCC 29212. Conditions: ATCC 29212.
Text: as §1, §2, §4

Marks after values point to notes of the source that are not given here. Where no end group is shown, it is not given here. Some results are limits rather than exact numbers.

As a reminder, the MIC is the smallest concentration in the dilution series that meets the test's criterion for growth inhibition. Low values mean greater potency, high ones weaker potency. One may read the MBC as the smallest concentration meeting the test's criterion for killing. Turning to KNLRRIIRKIIHIIKKYG [Ovispirin], the MIC was 2.6 ± 1.1 µM in [1]; 9.6 ± 3.9 µM against E. coli ATCC 25922 [2]; 7.7±0.1^e μM against K. pneumoniae ATCC 13883 [3]; 138.5 ± 24.5 µM in [4]; 45.9±13.8^e μM in the experiment with E. aerogenes ATCC 13048 [5]; 16.5 ± 1.7 µM against S. mutans Ingbritt [6]. Besides, the minimum inhibitory concentration (MIC) is 90.6 ± 7.5 µM in experiment [7], 4.2 ± 2.9 µM with F. nucleatum ATCC 25586 [8], greater than 250 µM in experiment [9] and 78.8 ± 40.7 µM in the experiment on E. faecalis ATCC 29212 [10]. Further, the MBC in experiment [11] was 2.0 ± 1.0 µM; against E. coli ATCC 25922 [12], 8.5 ± 0.7 µM; against K. pneumoniae ATCC 13883 [13], 21.7 ± 3.7 µM; in experiment [14], 139.7 ± 25.8 µM; in the experiment on E. aerogenes ATCC 13048 [15], 135.2 ± 26.3 µM; against S. mutans Ingbritt [16], 11.3 ± 5.3 µM. Besides, the minimal bactericidal concentration (MBC) is 95.9 ± 9.8 µM in [17], 4.7 ± 3.5 µM in the experiment with F. nucleatum ATCC 25586 [18], greater than 250 µM in experiment [19] and 72.4 ± 13.7 µM in the experiment with E. faecalis ATCC 29212 [20].
